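Compound exposure: 48 hours, 5 concentrations, 96-well plates. Abbreviation: GI50, concentration required for 50% inhibition of growth.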 Activity calls are given as the source filed them. Rule as the data show it: active = GI50 up to about 1.1 µM and inactive = higher.
Assays:
Experiment in all cases: inhibition of tumour cell growth, NCI panel, 48 h
[1] = test system: COLO 205
[2] = test system: EKVX
[3] = test system: HCC 2998
[4] = test system: HCT-15
[5] = test system: Hs-578T
[6] = test system: MOLT-4
[7] = test system: Malme-3M
[8] = test system: NCI-H226
[9] = test system: NCI-H460
[10] = test system: NCI-H522
[11] = test system: OVCAR-4
[12] = test system: OVCAR-5
[13] = test system: RPMI-8226
[14] = test system: SF-268
[15] = test system: SF-539
[16] = test system: UACC-257
[17] = test system: UACC-62
[18] = test system: UO-31
[19] = test system: MDA-N
[20] = test system: SK-MEL-2

| SMILES | GI50 [1] | GI50 [2] | GI50 [3] | GI50 [4] [µM] | GI50 [5] | GI50 [6] | GI50 [7] | GI50 [8] | GI50 [9] | GI50 [10] | GI50 [11] | GI50 [12] | GI50 [13] | GI50 [14] | GI50 [15] | GI50 [16] | GI50 [17] | GI50 [18] | GI50 [19] | GI50 [20] |
| --- | --- | --- | --- | --- | --- | --- | --- | --- | --- | --- | --- | --- | --- | --- | --- | --- | --- | --- | --- | --- |
| COC(=O)N[C@H](C(=O)O)C(C)O[Si](C)(C)C(C)(C)C (stereo partly drawn) | > 100 µM (inactive) | > 100 µM (inactive) | > 100 µM (inactive) | > 100 | > 100 µM (inactive) | > 100 µM (inactive) | > 100 µM (inactive) | > 100 µM (inactive) | > 100 µM (inactive) | > 100 µM (inactive) | > 100 µM (inactive) | > 100 µM (inactive) | > 100 µM (inactive) | > 100 µM (inactive) | > 100 µM (inactive) | > 100 µM (inactive) | > 100 µM (inactive) | > 100 µM (inactive) |  |  |
| N=c1oc2ccccc2cc1C(=O)Nc1ccccn1 | > 100 µM (inactive) | 33.2 µM (inactive) | > 100 µM (inactive) | 75 | 75 µM (inactive) | 66.4 µM (inactive) | 14 µM (inactive) | > 100 µM (inactive) | 95.9 µM (inactive) |  | > 100 µM (inactive) | > 100 µM (inactive) | > 100 µM (inactive) | > 100 µM (inactive) | 65.6 µM (inactive) | > 100 µM (inactive) | 58.6 µM (inactive) |  | > 100 µM (inactive) | 29.4 µM (inactive) |
| CC(C)(C)N/C(N)=N/C#N | > 100 µM (inactive) | > 100 µM (inactive) | > 100 µM (inactive) | > 100 | > 100 µM (inactive) | > 100 µM (inactive) | > 100 µM (inactive) |  | > 100 µM (inactive) |  | > 100 µM (inactive) | > 100 µM (inactive) | > 100 µM (inactive) | > 100 µM (inactive) | > 100 µM (inactive) | > 100 µM (inactive) | > 100 µM (inactive) | > 100 µM (inactive) | > 100 µM (inactive) | > 100 µM (inactive) |
| O=C(Cn1c(C(=O)/C=C/c2ccc(Cl)c(Cl)c2)nc2ccccc21)c1ccccc1 | 17.8 µM (inactive) | 14.4 µM (inactive) | 17.8 µM (inactive) | 25.2 | 27.3 µM (inactive) | 27.9 µM (inactive) | 35.2 µM (inactive) | 31.7 µM (inactive) | 16.2 µM (inactive) |  | 25.6 µM (inactive) | 17.6 µM (inactive) | 23.8 µM (inactive) | 45.4 µM (inactive) | 21.9 µM (inactive) | 27.7 µM (inactive) | 31 µM (inactive) | 24.8 µM (inactive) | 19.9 µM (inactive) | 19.8 µM (inactive) |
| CN(C)c1ccc(/C=C2\N=C(c3ccccc3)N(c3nc4c(Cl)cc(Cl)cc4s3)C2=O)cc1 | 55.8 µM (inactive) | 21.8 µM (inactive) | 45.2 µM (inactive) | 43.6 | 27 µM (inactive) | 22.6 µM (inactive) |  |  | 27.7 µM (inactive) |  | 39.2 µM (inactive) | 57.9 µM (inactive) | 14.9 µM (inactive) | 48.6 µM (inactive) | > 100 µM (inactive) | 47 µM (inactive) | 33.1 µM (inactive) | 43.8 µM (inactive) | 22.9 µM (inactive) | 49.9 µM (inactive) |
| COc1ccc(C(=O)c2sc(N(C)C)nc2-c2ccccc2)cc1 | 33.7 µM (inactive) |  | 18.2 µM (inactive) | 26.4 | 38.7 µM (inactive) | 81.3 µM (inactive) | 37.4 µM (inactive) | 67.5 µM (inactive) | 20.2 µM (inactive) |  | 23.4 µM (inactive) | 36.7 µM (inactive) | 33 µM (inactive) | 40.1 µM (inactive) | 58.7 µM (inactive) | 26.1 µM (inactive) | 30.8 µM (inactive) | 32.1 µM (inactive) | 18.1 µM (inactive) | 22.5 µM (inactive) |
| Oc1ccc(-c2nc(-c3cccnc3)c(-c3ccc(F)cc3)[nH]2)cc1 | 19.5 µM (inactive) | 19.3 µM (inactive) | 19.8 µM (inactive) | 22.7 | 20.9 µM (inactive) | 10 µM (inactive) | 17.5 µM (inactive) | 21.5 µM (inactive) | 23.3 µM (inactive) |  | 17.7 µM (inactive) | 30.2 µM (inactive) | 10.2 µM (inactive) | 22.5 µM (inactive) |  | 17.6 µM (inactive) | 16 µM (inactive) | > 10 µM (inactive) | 19 µM (inactive) | 17.9 µM (inactive) |
| COC1(OC)C=CC2C1C1C=CC2C1(OC)OC (stereo not drawn) | > 100 µM (inactive) | > 100 µM (inactive) | > 100 µM (inactive) | > 100 | > 100 µM (inactive) | > 100 µM (inactive) | > 100 µM (inactive) | > 100 µM (inactive) | > 100 µM (inactive) | > 100 µM (inactive) | > 100 µM (inactive) | > 100 µM (inactive) | > 100 µM (inactive) | > 100 µM (inactive) | > 100 µM (inactive) | > 100 µM (inactive) | > 100 µM (inactive) | > 100 µM (inactive) |  | > 100 µM (inactive) |
| O=C(Nc1ccccc1Cl)c1cc(S(=O)(=O)Nc2n[nH]c(=O)n2-c2ccccc2)c(S)cc1Cl | > 100 µM (inactive) | > 100 µM (inactive) | > 100 µM (inactive) | > 100 | > 100 µM (inactive) | > 100 µM (inactive) | > 100 µM (inactive) | > 100 µM (inactive) | > 100 µM (inactive) |  | > 100 µM (inactive) | > 100 µM (inactive) | > 100 µM (inactive) | > 100 µM (inactive) | > 100 µM (inactive) | > 100 µM (inactive) | > 100 µM (inactive) | > 100 µM (inactive) | > 100 µM (inactive) | > 100 µM (inactive) |
| O=C(NC(Cc1c[nH]c2ccccc12)C(=O)Nc1ccc(Br)cc1)OCc1ccccc1 (stereo not drawn) | 12.1 µM (inactive) | 6.59 µM (inactive) | 11 µM (inactive) | 11.1 | 18.9 µM (inactive) | 4.53 µM (inactive) | 11.4 µM (inactive) | 14.5 µM (inactive) | 6.22 µM (inactive) | 10.1 µM (inactive) | 9.14 µM (inactive) | 17.2 µM (inactive) | 6.38 µM (inactive) | 12.7 µM (inactive) | 15.3 µM (inactive) | 11.3 µM (inactive) | 10.1 µM (inactive) | 9.1 µM (inactive) |  | 6.56 µM (inactive) |
| CCOC(=O)Cn1c(C)nc2nn(Cc3ccccc3)cc2c1=O |  | > 100 µM (inactive) | > 100 µM (inactive) | > 100 | > 100 µM (inactive) | > 100 µM (inactive) | > 100 µM (inactive) | > 100 µM (inactive) | > 100 µM (inactive) |  |  | > 100 µM (inactive) |  | > 100 µM (inactive) | > 100 µM (inactive) |  | > 100 µM (inactive) | > 100 µM (inactive) | > 100 µM (inactive) | > 100 µM (inactive) |
